{"source": "patent US20170298056A1", "about": "“SMALL MOLECULE INHIBITORS OF HIV-1 ENTRY AND METHODS OF USE THEREOF” (Dana-Farber Cancer Institute, Inc., priority 2014, published 2017)", "key": {"HIV-1ADA": {"system": "HIV-1ADA", "assay": "Viral infection assay, ADA Env (wild type, ΔV1V2, CD4-independent N197S)", "assay_type": "cell-based", "conditions": "for Fold change: mutant/wild-type IC50", "method": "To study CD4-independent infection, the full-length HIV-1ADA N197S Env mutant was used. This Env is an ADA-HXBc2 chimera with an N197S change. The control “wild-type” ADA Env used in these experiments is also an ADA-HXBc2 chimera.\n(§1) Production of recombinant HIV-1 expressing luciferase. […] After 48 hours, the supernatant was collected, buffered with 50 mM Hepes pH 7.4 (final concentration) and centrifuged for 5 minutes at 750×g and 4° C. The virus-containing supernatant was used directly or frozen at −80° C.\n(§2) Viral infection assay. Each test compound was serially diluted in DMSO in a 96-well B&W isoplate (PerkinElmer, Boston, Mass.) using an HP D300 Digital Dispenser, to a final volume of 450 nl. DMSO was used as a control. Viruses pseudotyped with a specific Env were added to each well and incubated briefly at room temperature. Cf2Th-CD4/CCR5 cells were detached with StemPro Accutase Cell Dissociation Reagent (Invitrogen, cat #A11105-01), washed once, and 5000 cells were added to each well. […] Following incubation, the medium was aspirated and cells were lysed with 30 μl of Passive Lysis Buffer (Promega, cat #E1941). The activity of the firefly luciferase, which was used as a reporter protein in the system, was measured with a Centro LB 960 luminometer (Berthold Technologies, Oak Ridge, Tenn.). One hundred microliters of assay buffer (15 mM MgSO4, 15 mM KH2PO4/K2HPO4 pH 7.8, 1 mM ATP and 1 mM DTT) was injected to each well, followed by a 50 μl injection of 1 mM Dluciferin potassium salt (BD Pharmingen, San Jose, Calif.); luminescence was measured for 2 sec. Infection of PBMC was done as above, but 20,000-40,000 cells/well and viruses concentrated by ultracentrifugation were used. After four hours of incubation with viruses, the cells were centrifuged at 200×g for 6 minutes at 4° C., resuspended in 100 μl RPMI-PBMC medium and incubated at 37° C. for an additional 36-40 hours (total 40-44 hours). Supernatant was removed after centrifugation at 400×g for 5 minutes and cells were processed to detect luciferase activity, as described above."}, "HIV-2OC1": {"system": "HIV-2OC1", "assay": "Viral infection assay, HIV-2 Env", "assay_type": "cell-based", "conditions": "virus with HIV-2OC1 Env", "method": "as §1\nas §2, with “Infection of PBMC was done as above, but 20,000-40,000 cells/well and viruses concentrated by ultracentrifugation were used. After four hours of incubation with viruses, the cells were centrifuged at 200×g for 6 minutes at 4° C., resuspended in 100 μl RPMI-PBMC medium and incubated at 37° C. for an additional 36-40 hours (total 40-44 hours). Supernatant was removed after centrifugation at 400×g for 5 minutes and cells were processed to detect luciferase activity, as described above.” left out"}, "Cf2Th-CD4/CCR5 cells": {"system": "Cf2Th-CD4/CCR5 cells", "assay": "Viability assay (CellTiterGlo), CD4/CCR5-expressing target cells", "assay_type": "cell-based", "conditions": "read-out: half-maximal cytotoxic concentration (CC50)", "method": "(§3) Viability Assay. As part of the secondary screen, cells were incubated for ˜20 hours in 384-well plates in a final volume of 45 μl growth medium at 37° C. The plate was equilibrated to room temperature, 15 μl of CellTiterGlo (Promega) was added to each well and luminescence was measured as described above. The viability assay with 18A was done in parallel to the viral infection assay for the same length of time. 18A was diluted using an HP D300 Digital Dispenser in a 96-well B&W isoplate and cells were added. After incubation of 26-30 hours (Cf2Th cells) or 40-44 hours (PBMC). 30 μl (Cf2Th cells) or 100 μl (PBMC) of CellTiterGlo was added and luminescence was measured as described above."}, "Cf2Th-CD4/CXCR4 cells": {"system": "Cf2Th-CD4/CXCR4 cells", "assay": "Viability assay (CellTiterGlo), CD4/CXCR4-expressing target cells", "assay_type": "cell-based", "method": "as §3"}, "PBMC": {"system": "PBMC", "assay": "Viability assay (CellTiterGlo), PBMC", "assay_type": "cell-based", "conditions": "human PBMC, range of tested concentrations", "method": "as §3"}, "CCR5": {"system": "CCR5", "assay": "Binding of soluble gp120 to Cf2Th-CCR5 cells (flow cytometry)", "parameters": "species or system human", "conditions": "absence and presence of soluble CD4", "method": "Binding of soluble JR-FL gp120 to CCR5 was tested by incubating 1 million Cf2Th-CCR5 cells with 20 μg/mL purified gp120 in the presence or absence of 20 μg/mL sCD4 for 1 hour. After two washes, the cells were incubated with the 2G12 antibody followed by Allophycocyanin-conjugated F(ab′)2 fragment donkey anti-human IgG antibody to detect bound gp120. The cells were analyzed by FACS. All procedures were performed at room temperature."}, "[1]": {"system": "HIV-1JR-FL E168K+N188AΔCT Env trimer", "assay": "PG9 antibody binding to cell-surface Env trimer (flow cytometry)", "method": "(§4) Flow cytometry. […] After 48-72 hours, cells were detached with 5 mM EDTA/PBS and between 0.5-1 million cells were briefly incubated with various concentrations of 18A and then with or without the indicated concentrations of sCD4. C34-Ig (at a final concentration of 20 μg/ml) or a specified antibody (at final concentration of 1 μg/ml) was added to the cells. […] Cells were washed twice and analyzed with a BD FACSCanto II flow cytometer (BD Biosciences). For analysis of resistant mutants (FIG. 5e-g), the measurements were normalized for the level of sCD4 binding of each mutant, and the response of each mutant was further normalized to that of the wild-type HIV-1JR-FL E168K+N188AΔCT Env (herein designated WTKA). […] The sCD4 IC50/sCD4 binding ratio (FIGS. 4c and e) was calculated as follows. Binding of sCD4 to different envelope mutants was measured by flow cytometry and normalized first to 2G12 binding to account for potentially different Env expression levels, and then to sCD4 binding to the wild-type HIV-1JR-FL Env. The IC50 of sCD4 for inhibition of virus infection by each mutant Env was divided by the normalized sCD4 binding to Env-expressing cells to calculate the sCD4 IC50/sCD4 binding value."}, "[2]": {"system": "HIV-1JR-FLΔCT Env trimer (gp41 HR1)", "assay": "CD4-induced gp41 HR1 exposure, C34-Ig binding (flow cytometry)", "conditions": "100 μM 18A prior to sCD4 addition; approx. 37% with sCD4 alone", "method": "as §4"}, "HIV-1HXBc2": {"system": "HIV-1HXBc2", "assay": "Cold inactivation of recombinant virus", "assay_type": "cell-based", "conditions": "in the presence of 18A vs DMSO or unrelated compounds", "method": "For washout experiments, different concentrations of 18A were incubated with the recombinant viruses at 37° C. for 20 minutes. The viruses were laid on a 20% sucrose cushion and ultracentrifuged at 30,000 RPM in an SW55 rotor for 1.5 hours at 4° C. After the supernatant was aspirated, viruses were suspended in 500-1000 μl medium and 90 μl of the virus suspension was used to infect 5000 Cf2Th-CD4/CCR5 cells (5 replicates). The cells were incubated for 48 hours and processed as described above. Sensitivity of recombinant viruses to cold inactivation was measured."}}, "data": [{"smiles": "O=C(N/N=C/c1ccc(O)cc1)Nc1cccc2nsnc12", "note": "[Compound 18A]", "values": [{"measurement": "IC50", "setting": "HIV-1ADA; ADA Env wild type", "result": "12.8 ± 1.5", "unit": "µM"}, {"measurement": "Fold change", "setting": "HIV-1ADA; ADA Env wild type", "result": 1}, {"measurement": "IC50", "setting": "HIV-1ADA; ADA Env ΔV1V2", "result": "10.8 ± 2", "unit": "µM"}, {"measurement": "Fold change", "setting": "HIV-1ADA; ADA Env ΔV1V2", "result": 0.8}, {"measurement": "infection of CD4-negative, CCR5-expressing cells", "setting": "HIV-1ADA; CD4-independent HIV-ADA N197S", "result": "protected CD4-negative, CCR5-expressing cells from infection"}, {"measurement": "entry into CD4/CCR5-expressing cells", "setting": "HIV-1ADA; wild-type HIV-1ADA and HIV-1ADA N197S", "result": "blocked by 18A with a similar profile of inhibition"}, {"measurement": "inhibition of infection", "setting": "HIV-2OC1", "result": "significantly less potent"}, {"measurement": "CC50", "setting": "Cf2Th-CD4/CCR5 cells", "result": 44, "unit": "µM"}, {"measurement": "CC50", "setting": "Cf2Th-CD4/CXCR4 cells", "result": 63, "unit": "µM"}, {"measurement": "effect on viability of the cells", "setting": "PBMC", "result": "No significant effect"}, {"measurement": "effect on gp120 binding to CCR5", "setting": "CCR5", "result": "No effect"}, {"measurement": "PG9 binding", "setting": "[1]; 18A added prior to sCD4 incubation, 37.6% without sCD4, 6.6% with sCD4 alone", "result": 24.1, "unit": "%"}, {"measurement": "basal level of PG9 binding", "setting": "[1]; absence of sCD4", "result": "did not affect"}, {"measurement": "cells binding C34-Ig", "setting": "[2]", "result": 4.7, "unit": "%"}, {"measurement": "sensitivity of virus to cold inactivation", "setting": "HIV-1HXBc2", "result": "decreased sensitivity to cold inactivation"}]}]}
